Test results taken from patent publication US5494907A, “11-β substituted-19-nor steroids” (Roussel UCLAF, priority 1993, dated 1996).

Biological target: T1, AR (androgen receptor of the prostate of a rat) (Rattus norvegicus, UniProt P15207)
T1 construct: using either the natural hormonal receptor of a rat (AR); from tissue; host or cells: prostate of castrated male Sprague Dawley rats, high-speed supernatant
T1 sequence (P15207 1-902): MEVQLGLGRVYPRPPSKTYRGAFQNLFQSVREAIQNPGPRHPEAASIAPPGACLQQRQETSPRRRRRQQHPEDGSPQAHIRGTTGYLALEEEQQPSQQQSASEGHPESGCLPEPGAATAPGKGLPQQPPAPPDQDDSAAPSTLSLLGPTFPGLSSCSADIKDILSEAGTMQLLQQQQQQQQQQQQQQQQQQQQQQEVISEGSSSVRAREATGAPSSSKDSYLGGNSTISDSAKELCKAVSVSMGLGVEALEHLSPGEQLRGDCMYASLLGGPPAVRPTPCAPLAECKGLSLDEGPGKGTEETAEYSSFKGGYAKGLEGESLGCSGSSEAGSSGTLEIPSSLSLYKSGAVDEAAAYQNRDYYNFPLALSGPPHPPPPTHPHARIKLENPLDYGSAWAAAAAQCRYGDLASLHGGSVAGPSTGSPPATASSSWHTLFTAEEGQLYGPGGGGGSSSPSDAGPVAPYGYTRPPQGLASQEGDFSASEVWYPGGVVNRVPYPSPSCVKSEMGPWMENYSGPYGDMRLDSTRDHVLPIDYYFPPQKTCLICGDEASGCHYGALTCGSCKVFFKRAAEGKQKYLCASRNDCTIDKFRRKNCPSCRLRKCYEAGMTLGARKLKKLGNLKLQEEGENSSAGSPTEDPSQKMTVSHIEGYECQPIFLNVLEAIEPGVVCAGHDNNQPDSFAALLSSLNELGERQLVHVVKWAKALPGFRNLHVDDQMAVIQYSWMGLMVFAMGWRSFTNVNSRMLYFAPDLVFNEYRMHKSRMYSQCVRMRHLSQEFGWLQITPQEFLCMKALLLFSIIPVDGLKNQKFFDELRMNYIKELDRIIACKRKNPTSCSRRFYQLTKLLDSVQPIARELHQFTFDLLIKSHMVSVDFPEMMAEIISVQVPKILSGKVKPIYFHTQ
Experiment: Relative bond affinity (RBA) on androgen receptor of the prostate of a rat, displacement of tritiated testosterone
Assay type: binding
Conditions: Testosterone = 100; 0° C., 24 hours
Method: 1--Activity on the hormonal receptors using either the natural hormonal receptor of a rat (AR), or the recombinant human receptor (PR, GR and ER).
Androgen receptor of the prostate of a rat
Male Sprague Dawley EOPS rats weighing 180 to 200 g were castrated and 24 hours after the castration, the animals were sacrificed. The prostates were removed, weighed and homogenized at 0° C. using a Potter teflon-glass in a TS buffered solution (10 mM Tris, 0.25 M saccharose, 2 mMDTT, 20 mM MoNa, 0.1 mM PMSF, pH 7.4) (1 g of tissue per 8 ml of TS). The homogenate was centrifuged (209,000 g for 30 minutes) at 0° C. Aliquots of the supernatant were incubated at 0° C. for 24 hours with a constant concentration (T) of tritiated testosterone in the presence of increasing concentrations, either of unlabelled testosterone (0 to 1000×10^-9 M), or of the product under test (1 to 25000×10^-9 M). The concentration of bound tritiated testosterone (B) was measured in each incubate by the technique of adsorption with carbon dextran.
Calculation of the relative bond affinity (RBA).
The following 2 curves were traced: percentage of bound tritiated hormone B/BO as a function of the logarithm of the concentration of unlabelled reference hormone or as a function of the logarithm of the concentration of the unlabelled product under test.
The straight line of the following equation was determined:
BO=Concentration of bound tritiated hormone in the absence of any unlabelled product,
B=Concentration of bound tritiated hormone in the presence of a concentration X of unlabelled product,
B min=Concentration of bound tritiated hormone in the presence of a large excess of cold reference hormone (500 nM). The intersections of the straight line I50 and the curves allowed the evaluation of the concentrations of unlabelled reference hormone (CH) and of the unlabelled product under test (CX) which inhibited by 50% the specific binding of the tritiated hormone on the receptor.
The relative bond affinity (RBA) of the product under test was determined by the equation: […]

CCCCNS(=O)(=O)CCCCCOc1ccc([C@H]2C[C@]3(C)[C@@H](O)CC[C@H]3[C@@H]3CCc4cc(O)ccc4[C@H]32)cc1 [Example 2, N-butyl-5-[4-(Δ1,3,5(10)-estratrien-3,17β-diol-11β-yl)phenoxy]-pentanesulfonamide]
RBA AR: 3

CCCCN(C)S(=O)(=O)CCCCCOc1ccc([C@H]2C[C@]3(C)[C@@H](O)CC[C@H]3[C@@H]3CCc4cc(O)ccc4[C@H]32)cc1 [Example 7, N-butyl-5-[4-(Δ1,3,5(10)-estratrien-3,17β-diol-11β-yl)phenoxy]-N-methyl-pentanesulfonamide]
RBA AR: 2.5

CN(CC(F)(F)C(F)(F)C(F)(F)F)S(=O)(=O)CCCCCOc1ccc([C@H]2C[C@]3(C)[C@@H](O)CC[C@H]3[C@@H]3CCc4cc(O)ccc4[C@H]32)cc1 [Example 8, 5-[4-(Δ1,3,5(10)-estratrien-3,17β-diol-11βyl)-Phenoxy]-N-(2,2,3,3,4,4,4-heptafluorobutyl)-N-methyl-pentanesulfonamide]
RBA AR: 1.5
